Experiments:
Phakopsora pachyrhizi = assay: Green house G1: protective control of soy bean rust on soy beans caused by Phakopsora pachyrhizi (Phakpa P2); assay type: in vivo; details: soy bean seedlings sprayed 2 days before inoculation, % diseased leaf area, untreated control 70
Protocol: The spray solutions were prepared in several steps:
The stock solution were prepared: a mixture of acetone and/or dimethylsulfoxide and the wetting agent/emulsifier Wettol, which is based on ethoxylated alkylphenoles, in a relation (volume) solvent-emulsifier of 99 to 1 was added to 25 mg of the compound to give a total of 5 ml. Water was then added to total volume of 100 ml. This stock solution was diluted with the described solvent-emulsifier-water mixture to the given concentration.
G1. Protective control of soy bean rust on soy beans caused by Phakopsora pachyrhizi (Phakpa P2)
Leaves of pot-grown soy bean seedlings were sprayed to run-off with an aqueous suspension, containing the concentration of active ingredient or their mixture as described below. The plants were allowed to air-dry. The trial plants were cultivated for 2 days in a greenhouse chamber at 23-27° C. and a relative humidity between 60 and 80%. Then the plants were inoculated with spores of Phakopsora pachyrhizi. To ensure the success the artificial inoculation, the plants were transferred to a humid chamber with a relative humidity of about 95% and 20 to 24° C. for 24 h. The trial plants were cultivated for fourteen days in a greenhouse chamber at 23-27° C. and a relative humidity between 60 and 80%. The extent of fungal attack on the leaves was visually assessed as % diseased leaf area.

Septoria tritici = assay: Green house G2: preventative control of leaf blotch on wheat caused by Septoria tritici (Septtr P7); assay type: in vivo; details: wheat seedlings sprayed 7 days before inoculation, % diseased leaf area, untreated control 70
Protocol: The spray solutions were prepared in several steps: The stock solution were prepared: a mixture of acetone and/or dimethylsulfoxide and the wetting agent/emulsifier Wettol, which is based on ethoxylated alkylphenoles, in a relation (volume) solvent-emulsifier of 99 to 1 was added to 25 mg of the compound to give a total of 5 ml. Water was then added to total volume of 100 ml. This stock solution was diluted with the described solvent-emulsifier-water mixture to the given concentration. G2. Preventative control of leaf blotch on wheat caused by Septoria tritici (Septtr P7) Leaves of pot-grown wheat seedling were sprayed to run-off with an aqueous suspension of the active compound or their mixture, prepared as described. The plants were allowed to air-dry. Seven days later the plants were inoculated with an aqueous spore suspension of Septoria tritici. Then the trial plants were immediately transferred to a humid chamber at 18-22° C. and a relative humidity close to 100%. After 4 days the plants were transferred to a chamber with 18-22° C. and a relative humidity close to 70%. After 4 weeks the extent of fungal attack on the leaves was visually assessed as % diseased leaf area.

CCOC(Cn1cncn1)c1ccc(Oc2ccc(Cl)cc2)cc1Cl (centres unmarked) [prior art compound]
Disease (%) at 16 ppm Phakpa P2 (Phakopsora pachyrhizi): 70%
Disease (%) at 16 ppm Septtr P7 (Septoria tritici): 50%

Source: patent US20140187423A1, “Fungicidal substituted 1--1H-[1,2,4]triazole compounds” (BASF SE, priority 2011, published 2014)
